Among the test systems are 786-0 renal; A498 renal; HCC-2998 colon; IGROV1 ovarian; K-562 leukemia; LOX IMVI melanoma; NCI-H460 lung; SK-MEL-5 melanoma; TK-10 renal; UACC-62 melanoma.
Holding throughout (test): NCI tumour cell line growth inhibition, 48 h

Experimental findings from PubChem BioAssay (NCI) are described below.

Where “and” joins values, the source holds several entries; their conditions need not be identical. Identical values can stand only once.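 These data come from cells grown in 96-well plates and exposed to compound for 48 hours at five concentrations. GI50: concentration for 50% inhibition of growth. The concentration for full growth arrest is given as TGI.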

For the compound `C=C(C)C1CC2(C)C(C)CC(O)CC2C(OC(=O)C=C(C)C)C1O` (configuration not stated), the TGI in the assay on 786-0 renal, in the assay with A498 renal, with HCC-2998 colon, in the assay on IGROV1 ovarian, in the assay on K-562 leukemia and in the assay on LOX IMVI melanoma was > 100 µM in each case. Further, the TGI was 57.2 µM with NCI-H460 lung, 49.2 µM in the assay on SK-MEL-5 melanoma, > 100 µM in the assay on TK-10 renal and > 100 µM with UACC-62 melanoma.
As to `CCN(CC)CCCC(CCl)Nc1ccnc2cc(Cl)ccc12` (configuration not stated), the GI50 was 14.8 µM and 18 µM in the assay with 786-0 renal; 24.2 µM and 22 µM in the assay with A498 renal; 11.9 µM in the assay on HCC-2998 colon; 70.5 µM and 69.1 µM in the assay on IGROV1 ovarian; 3.42 µM and 3.99 µM in the assay with K-562 leukemia; 8.43 µM and 8.53 µM in the assay with LOX IMVI melanoma. The GI50 in the assay with NCI-H460 lung was 19.6 µM and 24.3 µM; in the assay with SK-MEL-5 melanoma, 10.3 µM and 13 µM; with TK-10 renal it was 10.1 µM and 14.1 µM; with UACC-62 melanoma it was 20 µM and 6.69 µM. In addition, the TGI was 32.8 µM and 62 µM in the assay with 786-0 renal; 64.3 µM and 51.1 µM in the assay with A498 renal; 27.8 µM with HCC-2998 colon; > 100 µM in the assay on IGROV1 ovarian; 15.7 µM with K-562 leukemia; 42.3 µM and 31.4 µM with LOX IMVI melanoma. Further, the TGI in the assay on NCI-H460 lung is 56.4 µM and > 100 µM; in the assay with SK-MEL-5 melanoma, 23.5 µM and 28.6 µM; in the assay on TK-10 renal, 22.2 µM and 29.4 µM; with UACC-62 melanoma, 38.7 µM and 34.8 µM.
As to `CCN1C(=O)/C(=C/c2c(Cl)[nH]c3cc(C)c(OC)cc23)c2ccccc21`, the GI50 is 4.87 µM in the assay with 786-0 renal; 5.95 µM in the assay on A498 renal; 2.4 µM in the assay on HCC-2998 colon; 2.07 µM in the assay with IGROV1 ovarian; 3.03 µM in the assay with K-562 leukemia; 9.72 µM in the assay with LOX IMVI melanoma. The GI50 is 3.31 µM in the assay on NCI-H460 lung, 2.99 µM with SK-MEL-5 melanoma, 16.5 µM with TK-10 renal and 0.526 µM in the assay on UACC-62 melanoma. In addition, the TGI with 786-0 renal is 21.3 µM; with A498 renal, 33 µM; in the assay on HCC-2998 colon, 7.15 µM; in the assay on IGROV1 ovarian it was > 100 µM; in the assay on K-562 leukemia it was > 100 µM; with LOX IMVI melanoma, > 100 µM. Besides, the TGI came out at 70.2 µM in the assay with NCI-H460 lung, 8.19 µM in the assay with SK-MEL-5 melanoma, 75.6 µM in the assay on TK-10 renal and 23.7 µM in the assay with UACC-62 melanoma.
`NC(CSC(c1ccccc1)(c1ccccc1)c1ccccc1)C(=O)NCC(=O)O` (configuration not stated): the GI50 was 6.78 µM in the assay with 786-0 renal; 4.31 µM in the assay with A498 renal; 2.57 µM in the assay with HCC-2998 colon; 10.7 µM in the assay on IGROV1 ovarian; 3.19 µM in the assay with K-562 leukemia; 7.66 µM with LOX IMVI melanoma. Further, the GI50 in the assay on NCI-H460 lung is 4.27 µM; in the assay with SK-MEL-5 melanoma, 3.4 µM; with UACC-62 melanoma it was 7.25 µM. Besides, the TGI with 786-0 renal is > 100 µM; with A498 renal, 86.1 µM; in the assay with HCC-2998 colon, 22.2 µM; with IGROV1 ovarian, > 100 µM; in the assay with K-562 leukemia, > 100 µM; with LOX IMVI melanoma, > 100 µM. The figures for the TGI in the assay with NCI-H460 lung, in the assay on SK-MEL-5 melanoma and in the assay on UACC-62 melanoma were 78.8 µM, 31.4 µM and > 100 µM, respectively.
Regarding `N#CCC(=O)N/N=C1/C(=O)N(c2ccc(Cl)cc2)C(=O)C(=O)C1c1nc2ccccc2s1` (configuration not stated), the TGI in the assay on 786-0 renal, in the assay on A498 renal, in the assay with HCC-2998 colon, in the assay on IGROV1 ovarian, in the assay with LOX IMVI melanoma and with SK-MEL-5 melanoma was > 100 µM in each case. Moreover, the TGI with TK-10 renal and in the assay on UACC-62 melanoma was > 100 µM throughout.
In the case of `CC(=O)OC1OC([C@H]2c3cccc(O)c3C(=O)c3c(O)cc(C)cc32)C(O)C(O)C1O` (some centres not stated), the GI50 with 786-0 renal was 0.0334 µM; with A498 renal it was 0.105 µM; in the assay on HCC-2998 colon it was < 0.01 µM; in the assay on IGROV1 ovarian, 0.224 µM; in the assay on K-562 leukemia it was 0.203 µM; in the assay on LOX IMVI melanoma, < 0.0146 µM. The GI50 in the assay with NCI-H460 lung was 0.105 µM; with TK-10 renal it was 0.254 µM; in the assay on UACC-62 melanoma, < 0.0219 µM. The TGI in the assay with 786-0 renal was 1.99 µM; in the assay with A498 renal it was 0.589 µM; in the assay on IGROV1 ovarian, > 100 µM; in the assay on K-562 leukemia it was > 33.5 µM; with LOX IMVI melanoma, < 0.0251 µM; with NCI-H460 lung it was 1.41 µM. The TGI was found to be 1.75 µM in the assay with TK-10 renal and 1.41 µM with UACC-62 melanoma.
`CCN(CC)CCNC(Cc1ccccc1)c1ccc(OCc2ccccc2)cc1` (configuration not stated): the GI50 is 3.61 µM with 786-0 renal; 2.02 µM in the assay on A498 renal; 5.17 µM in the assay with HCC-2998 colon; 4.43 µM with IGROV1 ovarian; 2.37 µM with K-562 leukemia; 4.19 µM in the assay on LOX IMVI melanoma. In addition, the figures for the GI50 with NCI-H460 lung, with SK-MEL-5 melanoma and with UACC-62 melanoma were 3.56 µM, 1.97 µM and 1.92 µM, respectively. For the same compound, the TGI came out at 17.9 µM in the assay with 786-0 renal; 7.94 µM in the assay with A498 renal; 17.4 µM with HCC-2998 colon; 17.1 µM in the assay on IGROV1 ovarian; 7.16 µM in the assay on K-562 leukemia; 15.9 µM in the assay with LOX IMVI melanoma. The figures for the TGI in the assay on NCI-H460 lung, in the assay with SK-MEL-5 melanoma and in the assay with UACC-62 melanoma were 12.9 µM, 4.46 µM and 3.89 µM, respectively.
`O=C(Nc1cccc(O)c1)C(=O)C1C(=O)NC(=S)NC1=O`: the TGI in the assay with 786-0 renal, in the assay with A498 renal, in the assay with HCC-2998 colon, in the assay on IGROV1 ovarian, in the assay on K-562 leukemia and in the assay on LOX IMVI melanoma was > 100 µM each time. The TGI in the assay with SK-MEL-5 melanoma and in the assay on UACC-62 melanoma was > 100 µM each time.
On to `CCCC1(CC(=O)O)OCCc2c1[nH]c1ccccc21` (configuration not stated), for which the TGI in the assay with 786-0 renal, in the assay with A498 renal, in the assay on HCC-2998 colon, in the assay with IGROV1 ovarian, in the assay with K-562 leukemia and in the assay on LOX IMVI melanoma was > 100 µM each time. Moreover, the TGI with SK-MEL-5 melanoma, with TK-10 renal and with UACC-62 melanoma was > 100 µM throughout.
In the case of `O=C(NC(=O)c1c(F)cccc1F)Nc1cccc(Oc2ncc(Cl)cn2)c1`, the TGI with 786-0 renal was > 100 µM; in the assay with A498 renal, > 100 µM; in the assay on HCC-2998 colon, > 27.3 µM; with IGROV1 ovarian it was > 100 µM; in the assay with K-562 leukemia it was > 100 µM; in the assay on LOX IMVI melanoma, > 100 µM. The TGI in the assay with SK-MEL-5 melanoma, in the assay on TK-10 renal and with UACC-62 melanoma was > 100 µM each time.
